Data: ChEMBL document CHEMBL4118113, “Lipophilic Efficiency as an Important Metric in Drug Design” (J Med Chem, 2018)

How the values were obtained:
[1] = target: Aldo-keto reductase family 1 member B1 (Homo sapiens, UniProt P15121); assay: Inhibition of human ALR2
[2] = target: ALK tyrosine kinase receptor (Homo sapiens, UniProt Q9UM73, L1196M); assay: Inhibition of ALK L1196M mutant (unknown origin)
[3] = Lipophilicity, log D of the compound; format: physicochemical; conditions: octanol/water

Chain of ALK tyrosine kinase receptor (Q9UM73 19-1620 L1196M limits assumed): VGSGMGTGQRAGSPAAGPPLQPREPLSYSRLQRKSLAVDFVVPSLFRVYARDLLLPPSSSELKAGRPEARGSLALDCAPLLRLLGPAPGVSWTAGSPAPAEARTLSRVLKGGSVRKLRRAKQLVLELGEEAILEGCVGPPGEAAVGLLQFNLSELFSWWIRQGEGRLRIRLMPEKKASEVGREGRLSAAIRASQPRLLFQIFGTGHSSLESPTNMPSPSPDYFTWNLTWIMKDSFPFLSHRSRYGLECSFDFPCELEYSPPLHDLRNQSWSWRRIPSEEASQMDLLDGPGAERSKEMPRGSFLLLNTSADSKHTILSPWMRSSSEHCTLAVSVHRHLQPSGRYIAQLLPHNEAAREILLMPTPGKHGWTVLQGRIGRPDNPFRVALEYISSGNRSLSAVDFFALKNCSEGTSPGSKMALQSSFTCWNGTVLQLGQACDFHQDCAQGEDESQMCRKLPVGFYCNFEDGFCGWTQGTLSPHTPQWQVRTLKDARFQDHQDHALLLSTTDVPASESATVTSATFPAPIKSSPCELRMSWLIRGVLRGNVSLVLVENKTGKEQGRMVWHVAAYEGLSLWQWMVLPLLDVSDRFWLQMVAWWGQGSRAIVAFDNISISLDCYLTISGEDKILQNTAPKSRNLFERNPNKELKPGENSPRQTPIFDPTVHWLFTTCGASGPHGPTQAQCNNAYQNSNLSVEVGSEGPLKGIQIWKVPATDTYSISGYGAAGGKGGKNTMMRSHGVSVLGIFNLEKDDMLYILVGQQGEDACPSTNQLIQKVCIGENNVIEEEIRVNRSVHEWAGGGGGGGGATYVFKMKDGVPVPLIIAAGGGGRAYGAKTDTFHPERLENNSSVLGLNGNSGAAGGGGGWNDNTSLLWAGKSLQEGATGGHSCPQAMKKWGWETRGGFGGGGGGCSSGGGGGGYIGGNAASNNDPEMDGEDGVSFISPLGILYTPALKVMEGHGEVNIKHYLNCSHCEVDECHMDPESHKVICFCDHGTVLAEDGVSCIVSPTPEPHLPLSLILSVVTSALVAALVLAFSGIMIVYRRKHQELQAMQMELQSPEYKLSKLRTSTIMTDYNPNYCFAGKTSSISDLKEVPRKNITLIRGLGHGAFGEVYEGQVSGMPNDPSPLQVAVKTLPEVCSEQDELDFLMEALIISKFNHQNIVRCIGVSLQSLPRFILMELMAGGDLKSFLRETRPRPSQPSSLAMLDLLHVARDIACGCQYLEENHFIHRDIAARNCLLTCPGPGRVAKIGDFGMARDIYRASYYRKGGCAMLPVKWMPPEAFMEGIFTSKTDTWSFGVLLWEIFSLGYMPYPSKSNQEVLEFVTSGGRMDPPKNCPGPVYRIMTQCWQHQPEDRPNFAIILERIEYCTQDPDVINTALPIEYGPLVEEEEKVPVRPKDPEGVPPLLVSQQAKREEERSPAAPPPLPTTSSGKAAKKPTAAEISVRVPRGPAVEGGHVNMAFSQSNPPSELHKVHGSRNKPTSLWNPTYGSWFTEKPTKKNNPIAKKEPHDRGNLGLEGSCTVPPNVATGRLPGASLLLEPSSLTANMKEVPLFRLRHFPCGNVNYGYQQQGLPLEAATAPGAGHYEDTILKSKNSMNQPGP

| SMILES | IC50 [1] | Ki [2] | logD [3] |
| --- | --- | --- | --- |
| O=C(O)COc1cc(Cl)ccc1C(=O)NCc1ccc(Br)cc1 | 550 nM |  |  |
| C[C@H]1Oc2cc(cnc2N)-c2c(nn(C)c2C#N)CN(C)C(=O)c2ccccc21 |  | 4 nM | 2.2 |
